The record followed here is ChEMBL document CHEMBL3576791, “Rational Design of a Novel AMPA Receptor Modulator through a Hybridization Approach” (ACS Med Chem Lett, 2015).

Assay type in all cases: cell-based
For assay [1], the target named is Glutamate receptor 2 (Homo sapiens) (UniProt P42262). As to the kind of experiment: Modulation of GluA2 flip receptor (unknown origin) transfected in HEK293 cells assessed as desensitization measured as increase in steady-state current at 30 uM by electrophysiology.
Glutamate receptor 2 (Homo sapiens), sequence (P42262 whole entry): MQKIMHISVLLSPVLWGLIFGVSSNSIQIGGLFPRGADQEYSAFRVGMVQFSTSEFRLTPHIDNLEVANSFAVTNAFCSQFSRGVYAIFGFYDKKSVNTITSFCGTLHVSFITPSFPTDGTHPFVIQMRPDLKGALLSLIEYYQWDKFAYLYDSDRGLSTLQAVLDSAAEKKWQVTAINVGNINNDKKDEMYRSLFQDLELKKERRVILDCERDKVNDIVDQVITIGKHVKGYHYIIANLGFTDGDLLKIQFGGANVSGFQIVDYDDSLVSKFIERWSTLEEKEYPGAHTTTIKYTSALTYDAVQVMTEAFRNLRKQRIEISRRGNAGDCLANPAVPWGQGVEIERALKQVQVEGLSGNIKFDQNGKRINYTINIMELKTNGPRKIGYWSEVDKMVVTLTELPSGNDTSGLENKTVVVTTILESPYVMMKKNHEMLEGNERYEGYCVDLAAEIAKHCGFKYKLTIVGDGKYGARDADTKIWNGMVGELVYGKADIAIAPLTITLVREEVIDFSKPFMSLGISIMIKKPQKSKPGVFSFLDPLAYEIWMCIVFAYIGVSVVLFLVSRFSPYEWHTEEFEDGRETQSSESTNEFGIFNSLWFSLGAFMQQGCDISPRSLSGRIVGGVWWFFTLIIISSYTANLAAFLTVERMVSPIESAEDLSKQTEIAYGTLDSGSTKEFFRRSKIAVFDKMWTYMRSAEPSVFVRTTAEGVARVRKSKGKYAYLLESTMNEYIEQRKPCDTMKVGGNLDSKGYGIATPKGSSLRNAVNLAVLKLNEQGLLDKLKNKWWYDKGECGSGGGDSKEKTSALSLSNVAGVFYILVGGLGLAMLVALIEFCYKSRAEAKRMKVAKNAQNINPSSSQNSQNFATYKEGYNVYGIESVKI
The target is the same in assay [2]. Put plainly: Modulation of GluA2 flip receptor (unknown origin) transfected in HEK293 cells assessed as deactivation of channel at 30 uM by electrophysiology.
The target is the same in assay [3]. As to the kind of experiment: Modulation of GluA2 flop receptor (unknown origin) transfected in HEK293 cells assessed as deactivation of channel at 30 uM by electrophysiology.
The target is the same in assay [4]. As to the kind of experiment: Modulation of GluA2 flop receptor (unknown origin) transfected in HEK293 cells assessed as desensitization measured as increase in steady-state current at 30 uM by electrophysiology.
For assay [5] the target is unchanged. Put plainly: Modulation of GluA2 flip receptor (unknown origin) transfected in HEK293 cells assessed as desensitization measured as increase in steady-state current at 100 uM by electrophysiology.
For assay [6] the target is unchanged. Put plainly: Modulation of GluA2 flop receptor (unknown origin) transfected in HEK293 cells assessed as desensitization measured as increase in steady-state current at 100 uM by electrophysiology.
Assay [7] has the same target. Put plainly: Modulation of GluA2 flip receptor (unknown origin) transfected in HEK293 cells assessed as deactivation of channel at 100 uM by electrophysiology.
For assay [8] the target is unchanged. As to the kind of experiment: Modulation of GluA2 flop receptor (unknown origin) transfected in HEK293 cells assessed as deactivation of channel at 100 uM by electrophysiology.

Activity calls are given as the source filed them. The calls are words filed in the database; no cut-off is given here.

Regarding `O=S1(=O)c2ccc(Cn3cc(CO)c(C(F)(F)F)n3)cc2OC[C@@H]2CCCN21`, the result in assay [1] and in assay [4] was Active. Besides, the outcome in assay [2] and in assay [3] was inactive.
On to `O=C1c2ccc(Cn3cc(CO)c(C(F)(F)F)n3)cc2OC[C@@H]2CCCN12`, for which the outcome in assay [1], in assay [2] and in assay [4] was Active. Further, the result in assay [3] was inactive.
Consider `O=C1c2ccc(-n3cc(CO)c(C(F)(F)F)n3)cc2OC[C@@H]2CCCN12`, for which the outcome in assay [1], in assay [2], in assay [3] and in assay [4] was inactive.
As for `NC(=O)c1c(NC(=O)Cn2cc(CO)c(C(F)(F)F)n2)sc2ccccc12`, the result in assay [5], in assay [6], in assay [7] and in assay [8] was Active.
